Common to all, as to format: functional, cell-based
The test system of one experiment is MCF7. Kind of experiment: In vitro cytotoxic activity of compound against human MCF-7 cell line.
A further experiment relates to L1210. As to the kind of experiment: In vitro cytotoxic activity of compound against mouse leukemia L1210 cell line.
The next experiment has as its system PC-3. As to the kind of experiment: In vitro cytotoxic activity of compound against human PC3 cell line.

Drawing on ChEMBL document CHEMBL1148242, “New benzo[5,6]pyrrolizino[1,2-b]quinolines as cytotoxic agents” (Bioorg Med Chem Lett, 2004), this text covers IC50 for seven compounds.

One may read the IC50 as the concentration that gives 50% inhibition. Read a high IC50 as weaker potency in that assay.

Turning to `COc1ccc2c(c1)cc1n2Cc2c-1nc1ccc(OCCN3CCCCC3)cc1c2C`, the 50% inhibitory concentration (IC50) is 5.3 µM with MCF7, 3.93 µM in the experiment with L1210 and 5.5 µM in the experiment on PC-3.

Consider `Cc1c2c(nc3ccc(OCCN4CCCCC4)cc13)-c1cc3cc(O)ccc3n1C2`, for which the IC50 in the experiment on MCF7 was 0.55 µM; in the experiment with L1210, 0.55 µM; with PC-3 it was 4.94 µM.

As to `Cc1c2c(nc3ccc(O)cc13)-c1cc3cc(O)ccc3n1C2`, the IC50 is more than 50 µM in the experiment on MCF7, 3.4 µM in the experiment with L1210 and more than 10 µM in the experiment with PC-3.

For the compound `COc1ccc2c(c1)cc1n2Cc2c-1nc1ccc(O)cc1c2C`, the figures for the 50% inhibitory concentration (IC50) with MCF7, with L1210 and in the experiment on PC-3 were 12 µM, 0.6 µM and more than 50 µM, respectively.

In the case of `CC[C@@]1(O)C(=O)OCc2c1cc1n(c2=O)Cc2cc3ccccc3nc2-1` [CAMPTOTHECIN], the IC50 in the experiment on MCF7 was found to be 0.32 µM; with L1210, 0.06 µM; in the experiment with PC-3, 0.31 µM.

`CCc1c2c(nc3ccc(OCCN4CCCCC4)cc13)-c1cc3cc(O)ccc3n1C2`: the IC50 in the experiment on MCF7 turned out to be 6.3 µM; in the experiment on L1210, 0.55 µM; with PC-3 it was 4.8 µM.

As to `Cc1c2c(nc3ccc(OCCN4CCCCC4)cc13)-c1cc3cc(OCCN4CCCCC4)ccc3n1C2`, the figures for the half-maximal inhibitory concentration (IC50) in the experiment on MCF7, in the experiment on L1210 and with PC-3 were 4.6 µM, 0.55 µM and 5.3 µM, respectively.
